In patent publication US20040110802A1, “Antibacterial benzoic acid derivatives” (priority 2002, published 2004):
≈ marks a conversion by molar mass, not a printed value.

Test system: SAUR 9218
Test: MIC Test Method, standard agar dilution
Type: cell-based
Conditions: agar dilution, Mueller Hinton agar, incubated overnight at 35° C.; lowest concentration that inhibits visible growth; read-out: SAUR 9218 MIC
Procedure, shortened: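 Agar dilution in Mueller Hinton agar with serial 2-fold compound dilutions. Staphylococcus aureus strain 9218 spotted at approximately 10^4 to 10^5 cells per spot, incubated overnight at 35 °C; MIC (μg/ml) is the lowest concentration preventing visible growth.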

Row | Structure (SMILES) | MIC [µg/mL]
1 | COc1ccccc1-c1cnc(C(=O)Nc2ccc(C#N)cc2C(=O)O)o1 | 1 (≈ 2.75 µM)
2 | Cc1c(C(=O)Cc2cncc(C(=O)Nc3ccc(C#N)cc3C(=O)O)c2)c(=O)n(-c2ccccc2)n1C | 32 (≈ 64.6 µM)
3 | Cn1c(/C=C/c2ccc(C#N)cc2C(=O)O)cc2ccccc21 | 64 (≈ 212 µM)
4 | CCCCCOc1cccc2cc(C(=O)Nc3ccc(C#N)cc3C(=O)O)n(C)c12 | 0.125 (≈ 0.308 µM)
5 | N#Cc1ccc(NC(=O)c2cc3cccc(NC(=O)CCCCc4ccccc4)c3[nH]2)c(C(=O)O)c1 | 0.25 (≈ 0.52 µM)
6 | N#Cc1ccc(NC(=O)c2cc3cccc(S(=O)(=O)c4ccccc4)c3[nH]2)c(C(=O)O)c1 | 0.125 (≈ 0.281 µM)
7 | NS(=O)(=O)c1ccc2onc(C(=O)Nc3ccc(Br)cc3C(=O)O)c2c1 | 0.25 (≈ 0.568 µM)
8 | O=C(Nc1ccc(I)cc1C(=O)O)c1cc(-c2ccccc2)on1 | 1 (≈ 2.3 µM)
9 | Cn1c(C(=O)Nc2ccc(C#N)cc2C(=O)O)cc2ccc(NC(=O)c3ccno3)cc21 | 0.5 (≈ 1.16 µM)
10 | N#Cc1ccc(NC(=O)c2cc3cccc(Cl)c3[nH]2)c(C(=O)O)c1 | 1 (≈ 2.94 µM)
11 | Cn1c(C(=O)Nc2ccc(C#N)cc2C(=O)O)c(Br)c2cccc(OCc3ccccc3)c21 | 1 (≈ 1.98 µM)
12 | N#Cc1ccc(NC(=O)c2ncc(-c3ccc4c(c3)OCO4)o2)c(C(=O)O)c1 | 2 (≈ 5.3 µM)
13 | Cc1sc(C(=O)Nc2ccc(C#N)cc2C(=O)O)cc1S(=O)(=O)N(CCO)Cc1ccccc1 | 16 (≈ 32 µM)
14 | CCN(CC)c1ccc(NS(=O)(=O)c2csc(C(=O)Nc3ccc(Br)cc3C(=O)O)c2C)cc1 | 64 (≈ 113 µM)
15 | Cn1c(C(=O)Nc2ccc(C#N)cc2C(=O)O)cc2cccc(NS(=O)(=O)CCCCl)c21 | 0.125 (≈ 0.263 µM)
16 | CC(=O)Oc1ccc(N2C(=O)c3ccc(C(=O)Nc4ccc(Br)cc4C(=O)O)cc3C2=O)cc1 | 64 (≈ 122 µM)
17 | CSc1ncccc1C(=O)Nc1ccc(Br)cc1C(=O)O | > 128
18 | O=C(Nc1ccc(Cl)cc1C(=O)O)c1cc(CCCC2CCCCC2)on1 | 4 (≈ 10.2 µM)
19 | O=C(O)c1cc(Br)ccc1NC(=O)c1onc2ccccc12 | 2 (≈ 5.54 µM)
20 | N#Cc1ccc(NC(=O)c2noc3c2CN(C(=O)OCc2ccccc2)CC3)c(C(=O)O)c1 | 0.5 (≈ 1.12 µM)
21 | COCC(=O)Nc1cccc2cc(C(=O)Nc3ccc(C#N)cc3C(=O)O)[nH]c12 | 4 (≈ 10.2 µM)
22 | CSCCOc1cccc2cc(C(=O)Nc3ccc(C#N)cc3C(=O)O)n(C)c12 | 0.25 (≈ 0.611 µM)

Row | Structure (SMILES) | MIC [µg/mL]
23 | N#Cc1ccc(NC(=O)c2noc3ccc(-c4ccccc4)cc23)c(C(=O)O)c1 | 0.125 (≈ 0.326 µM)
24 | N#Cc1ccc(NC(=O)c2noc3ccc(NS(=O)(=O)c4ccccc4)cc23)c(C(=O)O)c1 | 0.125 (≈ 0.27 µM)
25 | Cc1sc(C(=O)Nc2ccc(Br)cc2C(=O)O)cc1S(=O)(=O)NC1CCN(Cc2ccccc2)CC1 | > 128
26 | Cn1c(C(=O)Nc2ccc(Cl)cc2C(=O)O)cc2ccccc21 | 4 (≈ 12.2 µM)
27 | CCCCSc1cnc(C(=O)Nc2ccc(Br)cc2C(=O)O)cn1 | 1 (≈ 2.44 µM)
28 | Cc1ccccc1-c1cnc(C(=O)Nc2ccc(C#N)cc2C(=O)O)cn1 | 32 (≈ 89.3 µM)
29 | C=CCn1c(C(=O)Nc2ccc(Cl)cc2C(=O)O)cc2ccccc21 | 1 (≈ 2.82 µM)
30 | COCC1CCCN1S(=O)(=O)c1cc(C(=O)Nc2ccc(C#N)cc2C(=O)O)sc1C (stereo not shown) | 64 (≈ 138 µM)
31 | CCC(CC)Oc1ccccc1-c1cc(C(=O)Nc2ccc(C#N)cc2C(=O)O)no1 | 4 (≈ 9.54 µM)
32 | N#Cc1cccc(C(=O)Nc2cccc3cc(C(=O)Nc4ccc(C#N)cc4C(=O)O)[nH]c23)c1 | 1 (≈ 2.23 µM)
33 | N#Cc1ccc(NC(=O)c2cc3cccc(NC(=O)CCCc4ccccc4)c3[nH]2)c(C(=O)O)c1 | 0.5 (≈ 1.07 µM)
34 | N#Cc1ccc(-c2cnc(C(=O)Nc3ccc(C#N)cc3C(=O)O)o2)cc1 | > 128
35 | CNS(=O)(=O)c1ccc2onc(C(=O)Nc3ccc(C#N)cc3C(=O)O)c2c1 | 0.06 (≈ 0.15 µM)
36 | O=C(Nc1ccc(O)cc1C(=O)O)c1cc(-c2ccccc2Br)on1 | 0.125 (≈ 0.31 µM)
37 | COc1ccc(-c2ccc3cc(C(=O)Nc4ccc(C#N)cc4C(=O)O)n(C)c3c2)c(OC)c1OC | 0.25 (≈ 0.515 µM)
38 | CN(c1ccc(Cl)cc1)S(=O)(=O)c1cc(C(=O)Nc2ccc(Br)cc2C(=O)O)cs1 [drawing 1603] | 4 (≈ 7.55 µM)
39 | CCCCCCCCSc1cnc(C(=O)Nc2ccc(C#N)cc2C(=O)O)cn1 | 0.5 (≈ 1.21 µM)
40 | Cc1sc(C(=O)Nc2ccc(C#N)cc2C(=O)O)cc1S(=O)(=O)N1CCCC1CN1CCCC1 (stereo not shown) | 128 (≈ 255 µM)
41 | O=C(Nc1ccc(Br)cc1C(=O)O)c1csc(S(=O)(=O)NC2CCN(Cc3ccccc3)CC2)c1 | 64 (≈ 111 µM)
42 | CCCCc1ccc(C(=O)Nc2ccc(Br)cc2C(=O)O)nc1 | > 128
43 | COc1cccc2cc(C(=O)Nc3ccc(C#N)cc3C(=O)O)oc12 | 4 (≈ 11.9 µM)
44 | CCCCS(=O)(=O)Nc1cccc2cc(C(=O)Nc3ccc(C#N)cc3C(=O)O)n(C)c12 | 0.25 (≈ 0.55 µM)

Row | Structure (SMILES) | MIC [µg/mL]
45 | N#Cc1ccc(NC(=O)c2coc(-c3ccccc3)n2)c(C(=O)O)c1 | 64 (≈ 192 µM)
46 | N#Cc1ccc(NC(=O)c2cc(-c3ccccc3OCC3C=CCCC3)on2)c(C(=O)O)c1 (stereo not shown) | 2 (≈ 4.51 µM)
47 | CC(C)CC(=O)Nc1cccc2cc(C(=O)Nc3ccc(C#N)cc3C(=O)O)[nH]c12 | 2 (≈ 4.95 µM)
48 | COCCn1c(C(=O)Nc2ccc(Br)cc2C(=O)O)cc2ccccc21 | 16 (≈ 38.3 µM)
49 | CC(Oc1ccccc1-c1cc(C(=O)Nc2ccc(C#N)cc2C(=O)O)no1)C1CCCCC1 (stereo not shown) | 1 (≈ 2.18 µM)
50 | Cn1c(C(=O)Nc2ccc(C#N)cc2C(=O)O)cc2cccc(OCC(O)COCCOc3ccccc3)c21 (stereo not shown) | 0.5 (≈ 0.944 µM)
51 | COc1ccc(-c2cnc(C(=O)Nc3ccc(C#N)cc3C(=O)O)o2)cc1 | 1 (≈ 2.75 µM)
52 | N#Cc1ccc(NC(=O)c2cc3cccc(NC(=O)Cc4ccccc4C(F)(F)F)c3[nH]2)c(C(=O)O)c1 | 1 (≈ 1.97 µM)
53 | N#Cc1ccc(NC(=O)c2ccc(N3CCOCC3)nc2)c(C(=O)O)c1 | 64 (≈ 182 µM)
54 | COCCOCCCSc1ccc(C(=O)Nc2ccc(Cl)cc2C(=O)O)cn1 | 4 (≈ 9.41 µM)
55 | N#Cc1ccc(NC(=O)c2cc3cccc(NC(=O)c4cccc(S(=O)(=O)N5CCOCC5)c4)c3[nH]2)c(C(=O)O)c1 | 0.5 (≈ 0.872 µM)
56 | Cc1ccsc1C(=O)Nc1ccc(C#N)cc1C(=O)O | 1 (≈ 3.49 µM)
57 | O=C(Nc1ccc(Br)cc1C(=O)O)c1ncc(-c2ccc3c(c2)OCO3)o1 | 2 (≈ 4.64 µM)
58 | CN(C)S(=O)(=O)Nc1ccc2onc(C(=O)Nc3ccc(C#N)cc3C(=O)O)c2c1 | 0.5 (≈ 1.16 µM)
59 | Cn1nc(C(=O)Nc2ccc(Br)cc2C(=O)O)cc1OCc1ccccc1 | 16 (≈ 37.2 µM)
60 | CC1(C)OCC(CCc2cc(C(=O)Nc3ccc(Br)cc3C(=O)O)no2)O1 (stereo not shown) | 4 (≈ 9.11 µM)
61 | CCC1CCCCN1S(=O)(=O)c1cc(C(=O)Nc2ccc(C#N)cc2C(=O)O)sc1C (stereo not shown) | 2 (≈ 4.33 µM)
62 | N#Cc1ccc(NC(=O)c2cc3cccc(NC(=O)CSc4ccccc4)c3[nH]2)c(C(=O)O)c1 | 0.5 (≈ 1.06 µM)
63 | N#Cc1ccc(NC(=O)c2cc3cccc4c3n2CC/C4=N\OCc2ccccc2)c(C(=O)O)c1 | 0.5 (≈ 1.08 µM)
64 | Cc1cccc(CC(=O)Nc2cccc3cc(C(=O)Nc4ccc(C#N)cc4C(=O)O)[nH]c23)c1 | 0.125 (≈ 0.276 µM)
65 | Cn1c(C(=O)Nc2ccc(C#N)cc2C(=O)O)cc2ccc(NC(=O)c3ccco3)cc21 | 2 (≈ 4.67 µM)
66 | O=C(Nc1ccc(Br)cc1C(=O)O)c1c[nH]c(SCc2ccccc2)n1 | > 128

Row | Structure (SMILES) | MIC [µg/mL]
67 | N#Cc1ccc(NC(=O)c2cc(-c3ccccc3OCC3COc4ccccc4O3)on2)c(C(=O)O)c1 (stereo not shown) | 0.25 (≈ 0.503 µM)
68 | O=C(Nc1ccc(Br)cc1C(=O)O)c1cc2cccc(S(=O)(=O)c3ccccc3)c2[nH]1 | 0.125 (≈ 0.25 µM)
69 | N#Cc1ccc(NC(=S)c2cc(-c3ccccc3F)on2)c(C(=O)O)c1 | 0.5 (≈ 1.36 µM)
70 | CS(=O)(=O)c1ccccc1C(=O)Nc1cccc2cc(C(=O)Nc3ccc(C#N)cc3C(=O)O)[nH]c12 | 4 (≈ 7.96 µM)
71 | O=C(Nc1ccc(Br)cc1C(=O)O)c1coc(CC[C@H](O)CO)n1 | > 128
72 | Cc1sc(C(=O)Nc2ccc(C#N)cc2C(=O)O)cc1S(=O)(=O)N1CCN(c2ccc([N+](=O)[O-])cc2)CC1 | 4 (≈ 7.2 µM)
73 | Cn1c(C(=O)Nc2ccc(C#N)cc2C(=O)O)cc2cccc(NC(=O)Cc3ccc(F)cc3)c21 | 0.125 (≈ 0.266 µM)
74 | O=C(Nc1ccc(Br)cc1C(=O)O)c1ncc(-c2ccco2)o1 | 2 (≈ 5.3 µM)
75 | N#Cc1ccc(NC(=O)c2cc3cccc(NC(=O)Cc4ccccc4Cl)c3[nH]2)c(C(=O)O)c1 | 0.25 (≈ 0.529 µM)
76 | Cn1c(C(=O)Nc2ccc(C#N)cc2C(=O)O)cc2ccc(OCC3CC3)cc21 | 0.25 (≈ 0.642 µM)
77 | O=C(Nc1ccc(Br)cc1C(=O)O)c1csc(S(=O)(=O)NC2Cc3ccccc3C2)c1 | 8 (≈ 15.3 µM)
78 | O=C(O)c1cc(Br)ccc1NC(=O)c1ncccc1C(=O)c1ccccc1 | > 128
79 | Cn1c(C(=O)Nc2ccc(C#N)cc2C(=O)O)cc2cccc(OCCCOc3ccccc3)c21 | 0.125 (≈ 0.266 µM)
80 | N#Cc1ccc(NC(=O)c2cc3cccc(NC(=O)c4ccccc4CCc4ccccc4)c3[nH]2)c(C(=O)O)c1 | 0.5 (≈ 0.946 µM)
81 | Cn1c(C(=O)Nc2ccc(C#N)cc2C(=O)O)cc2cccc(-c3ccccc3F)c21 | 0.25 (≈ 0.605 µM)
82 | CC(=O)OCCCCSc1ccc(C(=O)Nc2ccc(C#N)cc2C(=O)O)cn1 | 0.25 (≈ 0.605 µM)
83 | Cn1c(C(=O)Nc2ccc(C#N)cc2C(=O)O)cc2cccc(C(OOSc3cnc(Cl)c(Br)c3)S(=O)(=O)c3cnc(Cl)c(Br)c3)c21 (stereo not shown) | 0.03 (≈ 0.0356 µM)
84 | COc1ccccc1CC(=O)Nc1cccc2cc(C(=O)Nc3ccc(C#N)cc3C(=O)O)[nH]c12 | 0.5 (≈ 1.07 µM)
85 | CCN(C(C)=O)c1ccc2onc(C(=O)Nc3ccc(C#N)cc3C(=O)O)c2c1 | 0.25 (≈ 0.637 µM)
